The target of the test is human H3 receptor (Homo sapiens, UniProt Q9Y5N1). Nature of the test: H3 receptor binding test (R(−)-α-methyl[3H]histamine). More on the design: purchased Euroscreen ES-392-M; host or cells: CHO-K1. Conditions: inhibition of R(−)-α-methyl[3H]histamine (2 nM) binding, membrane of human H3 receptor-expressing CHO-K1 cells. The procedure: A membrane preparation of human H3 receptor-expressing CHO-K1 cells (Euroscreen, ES-392-M, 15 μg protein/200 μl), R(−)-α-methyl[^3H]histamine (Amersham, TRK-1017, specific activity: 1.74 TBq/mmol, 2 nM) and a test drug were reacted at room temperature for 1 hour. After completion of the reaction, the reaction mixture was subjected to suction filtration through a 0.3% polyethyleneimine-treated glass filter (GF/C). The glass filter was washed five times with 50 mM Tris-HCl washing solution (pH 7.4) containing 5 mM EDTA. After washing, the glass filter was dried and a scintillator was added thereto, followed by measurement of radioactivity on the filter using a liquid scintillation counter.
Chain of human H3 receptor (Q9Y5N1 whole entry): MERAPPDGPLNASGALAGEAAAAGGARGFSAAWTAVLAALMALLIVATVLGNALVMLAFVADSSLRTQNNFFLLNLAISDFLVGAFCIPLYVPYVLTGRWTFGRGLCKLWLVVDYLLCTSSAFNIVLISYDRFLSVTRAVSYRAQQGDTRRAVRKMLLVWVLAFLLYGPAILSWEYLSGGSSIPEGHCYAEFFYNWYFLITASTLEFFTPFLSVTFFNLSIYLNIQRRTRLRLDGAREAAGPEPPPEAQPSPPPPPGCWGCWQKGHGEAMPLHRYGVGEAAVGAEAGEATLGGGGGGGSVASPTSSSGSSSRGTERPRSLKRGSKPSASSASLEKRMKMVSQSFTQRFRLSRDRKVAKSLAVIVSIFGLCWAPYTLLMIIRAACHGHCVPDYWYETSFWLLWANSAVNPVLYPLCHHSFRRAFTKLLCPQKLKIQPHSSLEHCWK
A fixed concentration (2 nM) of R(−)-α-methyl[^3H]histamine was reacted under the above conditions with each test drug at various concentrations to obtain an inhibition curve.
Broadly, the IC50 is the midpoint of a concentration-inhibition curve. `CCOC(=O)c1cnn(-c2ccc(OCCCN3CCC[C@H]3C)cc2)c1` [Example 1, 1-(4-{3-[(2R)-2-methylpyrrolidin-1-yl]propoxy}phenyl)-1H-pyrazole-4-carboxylic acid ethyl ester]: the IC50 was determined as 24 nM.

Consider `C[C@@H]1CCCN1CCCOc1ccc(-n2cc(C(N)=O)cn2)cc1` [Example 2, 1-(4-{3-[(2R)-2-methylpyrrolidin-1-yl]propoxy}phenyl)-1H-pyrazole-4-carboxamide], for which the IC50 was 6.5 nM.

In the case of `C[C@@H]1CCCN1CCCOc1ccc(-n2cc(C#N)cn2)cc1` [Example 3, 1-(4-{3-[(2R)-2-methylpyrrolidin-1-yl]propoxy}phenyl)-1H-pyrazole-4-carbonitrile], the IC50 stood at 4.6 nM.

On to `C[C@H]1CCCN1CCCOc1ccc(-n2cc(C(N)=O)cn2)cc1` [Example 4, 1-(4-{3-[(2S)-2-methylpyrrolidin-1-yl]propoxy}phenyl)-1H-pyrazole-4-carboxamide], for which the IC50 was found to be 33 nM.

Take `C[C@H]1CCCN1CCCOc1ccc(-n2cc(C#N)cn2)cc1` [Example 5, 1-(4-{3-[(2S)-2-methylpyrrolidin-1-yl]propoxy}phenyl)-1H-pyrazole-4-carbonitrile]: the IC50 came to 10.8 nM.

As for `O=C(c1cnn(-c2ccc(OCCCN3CCCC3)cc2)c1)N1CCOCC1` [Example 8, 4-({1-[4-(3-pyrrolidin-1-ylpropoxy)phenyl]-1H-pyrazol-4-yl}carbonyl)morpholine], the IC50 amounted to 24.2 nM.

On to `O=C(c1cnn(-c2ccc(OCCCN3CCCCC3)cc2)c1)N1CCOCC1` [Example 9, 4-({1-[4-(3-piperidin-1-ylpropoxy)phenyl]-1H-pyrazol-4-yl}carbonyl)morpholine], for which the IC50 is 8.5 nM.

Consider `CC1(C)CCCN1CCCOc1ccc(-n2cc(C(=O)N3CCOCC3)cn2)cc1` [Example 10, 4-[(1-{4-[3-(2,2-dimethylpyrrolidin-1-yl)propoxy]phenyl}-1H-pyrazol-4-yl)carbonyl]morpholine], for which the IC50 worked out at 49.4 nM.

`CC1CCCN1CCCOc1ccc(-n2cc(C(=O)NC(C)(C)C)cn2)cc1` (stereo not drawn) [Example 11, N-tert-butyl-1-{4-[3-(2-methylpyrrolidin-1-yl)propoxy]phenyl}-1H-pyrazole-4-carboxamide]: the IC50 worked out at 1.8 nM.

For `CC1CCC(C)N1CCCOc1ccc(-n2cc(C(=O)NC(C)(C)C)cn2)cc1` (stereo not drawn) [Example 12, N-tert-butyl-1-{4-[3-(2,5-dimethylpyrrolidin-1-yl)propoxy]phenyl}-1H-pyrazole-4-carboxamide], the IC50 was determined as 19.3 nM.

For the compound `CC(C)(C)NC(=O)c1cnn(-c2ccc(OCCCN3CCCC3)cc2)c1` [Example 13, N-tert-butyl-1-[4-(3-pyrrolidin-1-ylpropoxy)phenyl]-1H-pyrazole-4-carboxamide], the IC50 turned out to be 6.1 nM.

Turning to `CCN(CC)CCCOc1ccc(-n2cc(C(=O)NC(C)(C)C)cn2)cc1` [Example 14, N-tert-butyl-1-{4-[3-(diethylamino)propoxy]phenyl}-1H-pyrazole-4-carboxamide], the IC50 came to 13.5 nM.

Consider `CC1CCCN1CCCOc1ccc(-n2cc(C(=O)Nc3ccc(F)cc3)cn2)cc1` (stereo not drawn) [Example 15, N-(4-fluorophenyl)-1-{4-[3-(2-methylpyrrolidin-1-yl)propoxy]phenyl}-1H-pyrazole-4-carboxamide], for which the IC50 came to 1.8 nM.

With `O=C(Nc1ccc(F)cc1)c1cnn(-c2ccc(OCCCN3CCCC3)cc2)c1` [Example 16, N-(4-fluorophenyl)-1-[4-(3-pyrrolidin-1-ylpropoxy)phenyl]-1H-pyrazole-4-carboxamide], the IC50 turned out to be 5.9 nM.

`Cc1ccc(NC(=O)c2cnn(-c3ccc(OCCCN4CCCC4C)cc3)c2)cc1` (stereo not drawn) [Example 17, N-(4-methylphenyl)-1-{4-[3-(2-methylpyrrolidin-1-yl)propoxy]phenyl}-1H-pyrazole-4-carboxamide]: the IC50 worked out at 3.9 nM.

As to `CC1CCCN1CCCOc1ccc(-n2cc(C(=O)NCc3ccc(F)cc3)cn2)cc1` (stereo not drawn) [Example 18, 1-{4-[3-(2-methylpyrrolidin-1-yl)-propoxy]-phenyl}-1H-pyrazole-4-carboxylic acid 4-fluorobenzylamide], the IC50 turned out to be 3 nM.

Take `CC1CCCN1CCCOc1ccc(-n2cc(C(=O)N(C)C)cn2)cc1` (stereo not drawn) [Example 19, 1-{4-[3-(2-methylpyrrolidin-1-yl)-propoxy]-phenyl}-1H-pyrazole-4-carboxylic acid dimethylamide]: the IC50 is 5.1 nM.

With `C[C@@H]1CCCN1CCCOc1ccc(-n2cc(C(=O)N(CCO)CCO)cn2)cc1` [Example 20, 1-(4-{3-[(2R)-2-methylpyrrolidin-1-yl]propoxy}phenyl)-1H-pyrazole-4-carboxylic acid bis-(2-hydroxyethyl)-amide], the IC50 was 6.9 nM.

With `CC1CCCN1CCCOc1ccc(-n2cc(C(=O)N3CCC3)cn2)cc1` (stereo not drawn) [Example 21, azetidin-1-yl-(1-{4-[3-(2-methylpyrrolidin-1-yl)propoxy]phenyl}-1H-pyrazol-4-yl)methanone], the IC50 was 5.7 nM.

As for `C[C@@H]1CCCN1CCCOc1ccc(-n2cc(C(=O)N3CCC(F)(F)C3)cn2)cc1` [Example 22, 4-[(3,3-difluoropyrrolidin-1-yl)carbonyl]-1-(4-{3-[(2R)-2-methylpyrrolidin-1-yl]propoxy}phenyl)-1H-pyrazole], the IC50 stood at 2.7 nM.

`C[C@@H]1CCCN1CCCOc1ccc(-n2cc(C(=O)c3ccc(F)cc3)cn2)cc1` [Example 23, (4-fluorophenyl)[1-(4-{3-[(2R)-2-methylpyrrolidin-1-yl]propoxy}phenyl)-1H-pyrazol-4-yl]methanone]: the IC50 is 2.2 nM.

In the case of `C[C@@H]1CCCN1CCCOc1ccc(-n2cc(C(=O)c3ccccc3)cn2)cc1` [Example 24, [1-(4-{3-[(2R)-2-methylpyrrolidin-1-yl]propoxy}phenyl)-1H-pyrazol-4-yl](phenyl)methanone], the IC50 came to 3.3 nM.

`CC1CCCN1CCCOc1ccc(-n2cc(C(=O)c3ccccn3)cn2)cc1` (stereo not drawn) [Example 25, (1-{4-[3-(2-methylpyrrolidin-1-yl)propoxy]phenyl}-1H-pyrazol-4-yl)(pyridin-2-yl)methanone]: the IC50 was found to be 3.5 nM.

Take `C[C@@H]1CCCN1CCCOc1ccc(-n2cc(C(=O)c3ccncc3)cn2)cc1` [Example 26, [1-(4-{3-[(2R)-2-methylpyrrolidin-1-yl]propoxy}phenyl)-1H-pyrazol-4-yl](pyridin-4-yl)methanone]: the IC50 came to 2.6 nM.

Take `CC(=O)c1cnn(-c2ccc(OCCCN3CCC[C@H]3C)cc2)c1` [Example 27, 1-[1-(4-{3-[(2R)-2-methylpyrrolidin-1-yl]propoxy}phenyl)-1H-pyrazol-4-yl]ethanone]: the IC50 was determined as 1.6 nM.

On to `C[C@@H]1CCCN1CCCOc1ccc(-n2cc([N+](=O)[O-])cn2)cc1` [Example 28, 1-(4-{3-[(2R)-2-methylpyrrolidin-1-yl]propoxy}phenyl)-4-nitro-1H-pyrazole], for which the IC50 is 3.1 nM.

Consider `C[C@H]1CCCN1CCCOc1ccc(-n2cc(N3CCCC3=O)cn2)cc1` [Example 31, 1-[1-(4-{3-[(2S)-2-methylpyrrolidin-1-yl]propoxy}phenyl)-1H-pyrazol-4-yl]pyrrolidine-2-one], for which the IC50 amounted to 5.1 nM.

Turning to `O=C1CCCN1c1cnn(-c2ccc(OCCCN3CCCC3)cc2)c1` [Example 32, 1-{1-[4-(3-pyrrolidin-1-ylpropoxy)phenyl]-1H-pyrazol-4-yl}pyrrolidine-2-one], the concentration for half-maximal inhibition (IC50) was determined as 8.3 nM.

For `CC1CCCN1CCCOc1ccc(-n2cc(N3CCOC3=O)cn2)cc1` (stereo not drawn) [Example 34, 3-(1-{4-[3-(2-methylpyrrolidin-1-yl)propoxy]phenyl}-1H-pyrazol-4-yl)-1,3-oxazolidin-2-one], the IC50 amounted to 2.1 nM.

With `CC1CCCN1CCCOc1ccc(-n2cc(N3CCCCC3=O)cn2)cc1` (stereo not drawn) [Example 36, 1-(1-{4-[3-(2-methylpyrrolidin-1-yl)propoxy]phenyl}-1H-pyrazol-4-yl)piperidin-2-one], the IC50 worked out at 4 nM.

For `CC(=O)Nc1cnn(-c2ccc(OCCCN3CCC[C@H]3C)cc2)c1` [Example 37, N-[1-(4-{3-[(2R)-2-methylpyrrolidin-1-yl]propoxy}phenyl)-1H-pyrazol-4-yl]acetamide], the half-inhibitory concentration (IC50) came out at 2.1 nM.

Take `CC(=O)N(C)c1cnn(-c2ccc(OCCCN3CCC[C@H]3C)cc2)c1` [Example 38, N-methyl-N-[1-(4-{3-[(2R)-2-methylpyrrolidin-1-yl]propoxy}phenyl)-1H-pyrazol-4-yl]acetamide]: the half-inhibitory concentration (IC50) came to 0.9 nM.

For `CCN(C(C)=O)c1cnn(-c2ccc(OCCCN3CCCC3C)cc2)c1` (stereo not drawn) [Example 39, N-ethyl-N-(1-{4-[3-(2-methylpyrrolidin-1-yl)propoxy]phenyl}-1H-pyrazol-4-yl)acetamide], the IC50 came out at 3.5 nM.

As to `CC1CCCN1CCCOc1ccc(-n2cc(NC(=O)c3ccc(C#N)cc3)cn2)cc1` (stereo not drawn) [Example 40, 4-cyano-N-(1-{4-[3-(2-methylpyrrolidin-1-yl)propoxy]phenyl}-1H-pyrazol-4-yl)benzamide], the IC50 was determined as 4.4 nM.

Consider `COc1ccc(C(=O)Nc2cnn(-c3ccc(OCCCN4CCCC4C)cc3)c2)cc1` (stereo not drawn) [Example 41, 4-methoxy-N-(1-{4-[3-(2-methylpyrrolidin-1-yl)propoxy]phenyl}-1H-pyrazol-4-yl)benzamide], for which the IC50 was 2.1 nM.

For the compound `C[C@@H]1CCCN1CCCOc1ccc(-n2cc(NC(=O)c3ccc(O)cc3)cn2)cc1` [Example 42, 4-hydroxy-N-[1-(4-{3-[(2R)-2-methylpyrrolidin-1-yl]propoxy}phenyl)-1H-pyrazol-4-yl]benzamide], the IC50 is 1.7 nM.
